From ChEMBL document CHEMBL1201862, “PubChem BioAssay data set” (2004)
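Briefly, cells in 96-well plates were exposed to five compound concentrations for 48 h, and endpoints were estimated by linear interpolation. GI50 marks 50% less growth.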 Active and inactive are the calls of the source. Cut-off read from the data, not from the text of the source: active = GI50 up to about 1.1 µM and inactive = higher.

How the values were obtained:
Experiment in all cases: NCI tumour cell line growth inhibition, 48 h
A549 = tested on: A549
COLO 205 = tested on: COLO 205
DU-145 = tested on: DU-145
EKVX = tested on: EKVX
HCC 2998 = tested on: HCC 2998
HOP-62 = tested on: HOP-62
HOP-92 = tested on: HOP-92
KM12 = tested on: KM12
MDA-MB-435 = tested on: MDA-MB-435
NCI-H460 = tested on: NCI-H460
OVCAR-3 = tested on: OVCAR-3
OVCAR-8 = tested on: OVCAR-8
RPMI-8226 = tested on: RPMI-8226
SK-MEL-5 = tested on: SK-MEL-5
SK-OV-3 = tested on: SK-OV-3
SNB-75 = tested on: SNB-75
U-251 = tested on: U-251
UACC-257 = tested on: UACC-257
UO-31 = tested on: UO-31
MDA-MB-231 = tested on: MDA-MB-231

Measured: GI50

OCC1NCC(O)C(O)C1O (stereo not drawn)
inactive: A549 > 100 µM | COLO 205 > 100 µM | DU-145 > 100 µM | EKVX > 100 µM | HCC 2998 > 100 µM | HOP-62 > 100 µM | HOP-92 > 100 µM | KM12 > 100 µM | MDA-MB-435 > 100 µM | NCI-H460 > 100 µM | OVCAR-3 > 100 µM | OVCAR-8 > 100 µM | RPMI-8226 > 100 µM | SK-MEL-5 > 100 µM | SK-OV-3 > 100 µM | SNB-75 > 100 µM | U-251 > 100 µM | UACC-257 > 100 µM | UO-31 > 100 µM

O=c1[nH]c(=O)n(C2CC(O)C(CO)O2)cc1COCC(F)(F)F (stereo not drawn)
inactive: A549 > 100 µM | COLO 205 > 100 µM | EKVX > 100 µM | HCC 2998 > 100 µM | HOP-62 > 100 µM | HOP-92 > 100 µM | KM12 > 100 µM | NCI-H460 > 100 µM | OVCAR-3 > 100 µM | OVCAR-8 > 100 µM | RPMI-8226 > 100 µM | SK-MEL-5 > 100 µM | SK-OV-3 > 100 µM | SNB-75 > 100 µM | U-251 > 100 µM | UACC-257 > 100 µM | UO-31 > 100 µM

S=P(N1CCCC1)(N1CC1)N1CC1
inactive: A549 > 100 µM | COLO 205 > 100 µM | EKVX > 100 µM | HCC 2998 > 100 µM | HOP-62 > 100 µM | HOP-92 > 10 µM | KM12 > 100 µM | NCI-H460 32.4 µM | OVCAR-3 > 100 µM | OVCAR-8 > 100 µM | RPMI-8226 > 100 µM | SK-MEL-5 > 100 µM | SK-OV-3 > 100 µM | SNB-75 > 100 µM | U-251 > 100 µM | UACC-257 > 100 µM | UO-31 > 100 µM

Cc1ccsc1/C=N/Nc1ccc2ccccc2n1
inactive: A549 7.43 µM | COLO 205 27.7 µM | DU-145 48.9 µM | EKVX 20.3 µM | HCC 2998 24.1 µM | HOP-62 19.8 µM | HOP-92 17.9 µM | KM12 32.1 µM | MDA-MB-435 56.5 µM | OVCAR-3 10.4 µM | OVCAR-8 41.4 µM | RPMI-8226 48.8 µM | SK-MEL-5 3.4 µM | SK-OV-3 16.5 µM | SNB-75 32.9 µM | U-251 49 µM | UACC-257 6.12 µM | UO-31 26.7 µM

Cn1c(=O)c2c(nc3n2CCCC(=O)N3CC(O)CCl)n(C)c1=O (stereo not drawn)
inactive: A549 > 100 µM | COLO 205 > 100 µM | DU-145 > 100 µM | EKVX > 100 µM | HCC 2998 > 100 µM | HOP-62 > 100 µM | HOP-92 > 100 µM | KM12 > 100 µM | MDA-MB-435 > 100 µM | NCI-H460 > 100 µM | OVCAR-3 > 100 µM | OVCAR-8 > 100 µM | RPMI-8226 > 100 µM | SK-MEL-5 > 100 µM | SK-OV-3 > 100 µM | SNB-75 > 100 µM | U-251 > 100 µM | UACC-257 > 100 µM | UO-31 > 100 µM

NC1CC=C(COC(=O)C(O)(c2ccccc2)C2CC2)CC1 (stereo not drawn)
inactive: A549 > 100 µM | COLO 205 > 100 µM | DU-145 > 100 µM | EKVX > 100 µM | HCC 2998 > 100 µM | HOP-62 > 100 µM | KM12 > 100 µM | MDA-MB-231 > 100 µM | OVCAR-3 > 100 µM | OVCAR-8 > 100 µM | RPMI-8226 > 100 µM | SK-MEL-5 > 100 µM | SK-OV-3 > 100 µM | SNB-75 > 100 µM | U-251 > 100 µM | UACC-257 > 100 µM | UO-31 > 100 µM

O=C(CC(C(=O)c1ccsc1)c1ccccc1)c1ccccc1 (stereo not drawn)
inactive: A549 28 µM | COLO 205 > 100 µM | DU-145 > 100 µM | EKVX > 100 µM | HCC 2998 > 100 µM | HOP-62 > 100 µM | HOP-92 > 100 µM | KM12 49.9 µM | MDA-MB-435 54.2 µM | NCI-H460 > 100 µM | OVCAR-3 > 100 µM | OVCAR-8 > 100 µM | RPMI-8226 > 100 µM | SK-MEL-5 43.2 µM | SK-OV-3 > 100 µM | SNB-75 > 100 µM | U-251 95.9 µM | UACC-257 > 100 µM | UO-31 > 100 µM

O=C(c1ccc([N+](=O)[O-])cc1[N+](=O)[O-])N(/N=C/C=C/c1ccccc1)c1nnc(-c2ccccc2)c(-c2ccccc2)n1
inactive: A549 29.4 µM | COLO 205 41.6 µM | EKVX 36.4 µM | HCC 2998 31.6 µM | HOP-62 86.1 µM | HOP-92 20.5 µM | KM12 34.8 µM | NCI-H460 34 µM | OVCAR-3 21 µM | OVCAR-8 22.7 µM | RPMI-8226 20.5 µM | SK-MEL-5 30.6 µM | SK-OV-3 74.8 µM | SNB-75 28.8 µM | U-251 40.3 µM | UACC-257 31.5 µM | UO-31 18.5 µM

O=C(CC(=O)n1nc(-c2ccccc2)c(/N=N/c2ccccc2Cl)c1-c1ccccc1)Nc1ccc(Cl)cc1
inactive: A549 > 54.1 µM | COLO 205 > 44.5 µM | EKVX > 100 µM | HCC 2998 > 100 µM | HOP-62 > 100 µM | HOP-92 > 100 µM | KM12 > 100 µM | NCI-H460 > 48.1 µM | OVCAR-3 > 100 µM | OVCAR-8 > 100 µM | RPMI-8226 > 49.3 µM | SK-MEL-5 > 100 µM | SK-OV-3 > 100 µM | SNB-75 > 100 µM | U-251 > 38.6 µM | UACC-257 > 83.2 µM | UO-31 > 100 µM

CC1(C)C[C@@H]2C1CCC1(C)CC2(O)CC[C@H]1O (stereo partly drawn)
inactive: A549 > 100 µM | COLO 205 > 100 µM | EKVX > 100 µM | HOP-62 > 100 µM | HOP-92 > 100 µM | KM12 > 100 µM | MDA-MB-435 > 100 µM | NCI-H460 > 100 µM | OVCAR-3 > 100 µM | OVCAR-8 > 100 µM | RPMI-8226 > 100 µM | SK-MEL-5 > 100 µM | SK-OV-3 > 100 µM | SNB-75 > 100 µM | U-251 > 100 µM | UACC-257 > 100 µM | UO-31 > 100 µM

Oc1ccc(-c2nc3ccc(F)cc3s2)cc1
inactive: A549 19.8 µM | COLO 205 16.2 µM | DU-145 15.2 µM | EKVX 10.8 µM | KM12 15.7 µM | MDA-MB-231 20.8 µM | MDA-MB-435 20.4 µM | NCI-H460 24.1 µM | OVCAR-3 30.7 µM | OVCAR-8 19.4 µM | RPMI-8226 35.7 µM | SK-MEL-5 18 µM | SK-OV-3 18.2 µM | U-251 19.2 µM | UACC-257 17.1 µM | UO-31 15.2 µM
